Article PMC5587797 (Nucleic Acids Research, 2017)

Columns and labels:
hTRMT10A [1] = biological target: hTRMT10A (Homo sapiens, UniProt Q8TBZ6, D210N); assay: biochemical
hTRMT10A [2] = biological target: hTRMT10A (Homo sapiens, UniProt Q8TBZ6); assay: biochemical
Chain of hTRMT10A (Homo sapiens, UniProt Q8TBZ6) (Q8TBZ6 whole entry): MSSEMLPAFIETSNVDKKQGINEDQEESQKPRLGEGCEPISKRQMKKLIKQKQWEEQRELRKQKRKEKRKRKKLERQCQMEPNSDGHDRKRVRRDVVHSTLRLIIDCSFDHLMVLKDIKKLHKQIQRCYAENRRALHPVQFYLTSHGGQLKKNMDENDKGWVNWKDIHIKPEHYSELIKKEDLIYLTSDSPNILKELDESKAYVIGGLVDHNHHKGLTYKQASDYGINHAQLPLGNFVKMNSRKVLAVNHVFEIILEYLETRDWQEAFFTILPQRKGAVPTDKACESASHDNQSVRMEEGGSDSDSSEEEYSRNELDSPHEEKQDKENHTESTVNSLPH

Chain of hTRMT10A (Homo sapiens, UniProt Q8TBZ6, D210N) (Q8TBZ6 whole entry D210N): as the sequence (Q8TBZ6 whole entry) above, with D210N counted along it

For C[S+](CC[C@H](N)C(=O)O)C[C@H]1O[C@@H](n2cnc3c(N)ncnc32)[C@H](O)[C@@H]1O (some centres unmarked) [S-adenosyl methionine], the Kd (hTRMT10A [1]) was 60.6 ± 10.3 µM and the Kd (hTRMT10A [2]) was 17.7 ± 4 µM.
